Reference: US10081665B2, “Peptides and combination of peptides for use in immunotherapy against various tumors” (immatics biotechnologies GmbH, priority 2015, dated 2018)

Columns and labels:
HLA-A*02:01 = HLA-A*02:01 (Homo sapiens, UniProt P04439, D140Y/D185E/D98H/E176V/E277Q/G131W/G231S/I119V/I121R/I166T/I218V/L300P/L318F/N151K/N90K/P208A/P217A/Q86G/Q94H/R138H/R169H/T345S); test: MHC binding assay (UV-ligand exchange, beta2m ELISA); conditions: binding to HLA-A*02:01, β2m ELISA
Method in brief: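 Peptide-MHC complexes made by UV-ligand exchange of a UV-cleavable peptide for test peptide; exchange yield measured by β2m ELISA on streptavidin-coated plates with samples diluted 100-fold, HRP anti-β2m and TMB read at 450 nm. Refolded HLA-A*02:01/MLA-001 monomers (15-500 ng/ml) served as standards.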

CD8+ T cells = test: In vitro immunogenicity: T-cell priming with aAPCs loaded with peptide/MHC complexes and anti-CD28, pMHC multimer readout; type: cell-based, human; conditions: in vitro immunogenicity, HLA-A*02 restricted peptides; percentage of positive wells and donors (among evaluable)
Excerpt: In order to obtain information regarding the immunogenicity of the TUMAPs of the present invention, the inventors performed investigations using an in vitro T-cell priming assay based on repeated stimulations of CD8+ T cells with artificial antigen presenting cells (aAPCs) loaded with peptide/MHC complexes and anti-CD28 antibody.
In order to perform in vitro stimulations by artificial antigen presenting cells loaded with peptide-MHC complex (pMHC) and anti-CD28 antibody, the inventors first isolated CD8+ T cells from fresh HLA-A*02 leukapheresis products via positive selection using CD8 microbeads (Miltenyi Biotec, Bergisch-Gladbach, Germany) of healthy donors obtained from the University clinics Mannheim, Germany, after informed consent. PBMCs and isolated CD8+ lymphocytes were incubated in T-cell medium (TCM) until use consisting of RPMI-Glutamax (Invitrogen, Karlsruhe, Germany) supplemented with 10% heat inactivated human AB serum (PAN-Biotech, Aidenbach, Germany), 100 U/ml Penicillin/100 μg/ml Streptomycin (Cambrex, Cologne, Germany), 1 mM sodium pyruvate (CC Pro, Oberdorla, Germany), 20 μg/ml Gentamycin (Cambrex). 2.5 ng/ml IL-7 (PromoCell, Heidelberg, Germany) and 10 U/ml IL-2 (Novartis Pharma, Nürnberg, Germany) were also added to the TCM at this step. Generation of pMHC/anti-CD28 coated beads, T-cell stimulations and readout was performed in a highly defined in vitro system using four different pMHC molecules per stimulation condition and 8 different pMHC molecules per readout condition.
The purified co-stimulatory mouse IgG2a anti human CD28 Ab 9.3 (Jung et al., 1987) was chemically biotinylated using Sulfo-N-hydroxysuccinimidobiotin as recommended by the manufacturer (Perbio, Bonn, Germany). Beads used were 5.6 μm diameter streptavidin coated polystyrene particles (Bangs Laboratories, Illinois, USA).
pMHC used for positive and negative control stimulations were A*0201/MLA-001 (peptide […] (SEQ ID NO. 289) from modified Melan-A/MART-1) and A*0201/DDX5-001 ([…] from DDX5, SEQ ID NO. 290), respectively.
800,000 beads/200 μl were coated in 96-well plates in the presence of 4×12.5 ng different biotin-pMHC, washed and 600 ng biotin anti-CD28 were added subsequently in a volume of 200 μl. Stimulations were initiated in 96-well plates by co-incubating 1×10^6 CD8+ T cells with 2×10^5 washed coated beads in 200 μl TCM supplemented with 5 ng/ml IL-12 (PromoCell) for 3 days at 37° C. Half of the medium was then exchanged by fresh TCM supplemented with 80 U/ml IL-2 and incubating was continued for 4 days at 37° C. This stimulation cycle was performed for a total of three times. For the pMHC multimer readout using 8 different pMHC molecules per condition, a two-dimensional combinatorial coding approach was used as previously described (Andersen et al., 2012) with minor modifications encompassing coupling to 5 different fluorochromes. Finally, multimeric analyses were performed by staining the cells with Live/dead near IR dye (Invitrogen, Karlsruhe, Germany), CD8-FITC antibody clone SK1 (BD, Heidelberg, Germany) and fluorescent pMHC multimers. For analysis, a BD LSRII SORP cytometer equipped with appropriate lasers and filters was used. Peptide specific cells were calculated as percentage of total CD8+ cells. Evaluation of multimeric analysis was done using the FlowJo software (Tree Star, Oreg., USA). In vitro priming of specific multimer+CD8+ lymphocytes was detected by comparing to negative control stimulations.

[1] = system: advanced non-resectable HCC; conditions: advanced non-resectable HCC patients (Chapiro et al., 2014; Llovet et al., 2008); cited from earlier work

Compound	Peptide exchange (MHC class I binding score, peptide exchange yield) (HLA-A*02:01)	Wells positive [%] (CD8+ T cells)	increase of survival [1]
257 (KLIDHQGLYL; listed as Homo sapiens) [compound 257]	+++ (≥50 = +++)	+ (<20% = +)	–
260 (ALNESLVEC; listed as Homo sapiens) [compound 260]	+++ (≥50 = +++)	+ (<20% = +)	–
263 (SIIEYLPTL; listed as Homo sapiens) [compound 263]	+++ (≥50 = +++)	+ (<20% = +)	–
264 (TLHDQVHLL; listed as Homo sapiens) [compound 264]	++ (≥20% = ++)	+ (<20% = +)	–
CNC(=O)c1cc(Oc2ccc(NC(=O)Nc3ccc(Cl)c(C(F)(F)F)c3)cc2)ccn1 [Sorafenib]	–	–	about 3 months

Further lines, with some results ahead:

Peptide exchange (MHC class I binding score, peptide exchange yield) (HLA-A*02:01)	Compound	Wells positive [%] (CD8+ T cells)	increase of survival [1]
+++ (≥50 = +++)	242 (KLQEEIPVL; listed as Homo sapiens) [compound 242]	+ (<20% = +)	–
+++ (≥50 = +++)	246 (ALAGIVTNV; listed as Homo sapiens) [compound 246]	+ (<20% = +)	–
++ (≥20% = ++)	254 (ALGDKFLLRV; listed as Homo sapiens) [compound 254]	+ (<20% = +)	–
+++ (≥50 = +++)	255 (FLMKNSDLYGA; listed as Homo sapiens) [compound 255]	+ (<20% = +)	–
+++ (≥50 = +++)	267 (YLLDMPLWYL; listed as Homo sapiens) [compound 267]	+ (<20% = +)	–
